Tested on: 293T-HRE-GFP-luc cells
Assay: Cell-based reporter assay for IC50 determinations (HRE-luciferase, hypoxia)
Details: 6 h, 6 hrs hypoxia (1% O2), luminescence
Experimental: Cell-Based Reporter Assay for IC50 Determinations
293T-HRE-GFP-luc cells were routinely maintained in DMEM media (high glucose version with GlutaMAX and HEPES, Gibco, catalog #10564) supplemented with 10% fetal bovine serum and 2 μg/mL puromycin (Invitrogen, catalog #A11138-03) using a humidified incubator (normoxia conditions consisting of 37° C., 5% CO2 and ambient O2).
In preparation for the reporter assay, cells were harvested and resuspended in DMEM media (high glucose version with GlutaMAX and HEPES) supplemented with 10% fetal bovine serum. Cells were inoculated into 384-well white Culturplates (Perkin Elmer catalog #6007680) at a density of 12,000 cells/well in a volume of […]. The microplates were incubated overnight (approximately 17-19 hours) at 37° C. with 5% CO2 and ambient O2. Stock solutions of the test compounds were prepared in DMSO (Sigma, Catalog #D2650) and serially diluted 1:3 using DMSO. Compounds were additionally diluted (1:50) with culturemedium and 10 µL were added per well to the Culturplate. Following a 30 min. incubation under normoxia conditions, the plates were incubated in hypoxia for 6 hrs. (37° C., 5% CO2 and 1% O2). Steadylite Plus (Perkin Elmer, catalog #6016751) was then added ([…]), the plates were mixed on an orbital shaker at room temperature in the dark for 15 min., and luminescence was measured using an Envision plate reader (Perkin Elmer). IC50 values were calculated using a four-parameter logistic curve fit. Results are shown below in Table 2; ND indicates no data.

Row | SMILES | IC50
1 | CN1CCN(c2cc(Cn3nc(-c4nc(-c5ccc(OC(F)(F)F)cc5)no4)ccc3=O)ccn2)CC1 [Example 2] | < 0.1 µM
2 | COC(=O)CCc1cccc(Cn2cc(-c3nc(-c4ccc(OC(F)(F)F)cc4)no3)ccc2=O)c1 [Example 46, Methyl 3-{3-[(2-oxo-5-{3-[4-(trifluoromethoxy)phenyl]-1,2,4-oxadiazol-5-yl}-1,2-dihydropyridin-1-yl)methyl]phenyl}propanoate] | < 0.1 µM
3 | CS(=O)(=O)CCCOc1cccc(Cn2cc(-c3noc(-c4ccc(S(C)(=O)=O)cc4)n3)ccc2=O)c1 [Example 205, 5-[5-(4-methanesulfonylphenyl)-1,2,4-oxadiazol-3-yl]-1-{[3-(3-methanesulfonylpropoxy)phenyl]methyl}-1,2-dihydropyridin-2-one] | < 0.1 µM
4 | O=c1ccc(-c2nc(-c3ccc(OC(F)(F)F)cc3)no2)cn1Cc1ccc(F)c(Br)c1 [Example 135, 1-[(3-bromo-4-fluorophenyl)methyl]-5-{3-[4-(trifluoromethoxy)phenyl]-1,2,4-oxadiazol-5-yl}-1,2-dihydropyridin-2-one] | 0.1 to 1 µM
5 | O=c1ccc(-c2cc(-c3ccc(OC(F)(F)F)cc3)no2)cn1Cc1cccc(N2CCS(=O)(=O)CC2)c1 [Example 251, 1-(3-(1,1-dioxidothiomorpholino)benzyl)-5-(3-(4-(trifluoromethoxy)phenyl)isoxazol-5-yl)pyridin-2(1H)-one] | < 0.1 µM
6 | COc1cccc(Cn2cc(-c3nc(-c4ccc(OC(F)(F)F)cc4)no3)ccc2=O)c1 [Example 121, 1-(3-methoxybenzyl)-5-(3-(4-(trifluoromethoxy)phenyl)-1,2,4-oxadiazol-5-yl)pyridin-2(1H)-one] | < 0.1 µM
7 | COc1cccc(Cn2c(C)ccc(-c3nc(-c4ccc(OC(F)(F)F)cc4)no3)c2=O)c1 [Example 265, 1-[(3-methoxyphenyl)methyl]-6-methyl-3-{3-[4-(trifluoromethoxy)phenyl]-1,2,4-oxadiazol-5-yl}-1,2-dihydropyridin-2-one] | 0.1 to 1 µM
8 | CCOC(=O)CN1CCN(c2cccc(Cn3cc(-c4nc(-c5ccc(OC(F)(F)F)cc5)no4)ccc3=O)c2)CC1=O [Example 183, ethyl 2-(2-oxo-4-{3-[(2-oxo-5-{3-[4-(trifluoromethoxy)phenyl]-1,2,4-oxadiazol-5-yl}-1,2-dihydropyridin-1-yl)methyl]phenyl}piperazin-1-yl)acetate] | < 0.1 µM
9 | O=C(c1cccc(Cn2nc(-c3nc(-c4ccc(OC(F)(F)F)cc4)no3)ccc2=O)c1)N1CCOCC1 [Example 110, 2-(3-(morpholine-4-carbonyl)benzyl)-6-(3-(4-(trifluoromethoxy)phenyl)-1,2,4-oxadiazol-5-yl)pyridazin-3(2H)-one] | 0.1 to 1 µM
10 | COCCOc1cccc(Cn2cc(-c3noc(-c4cnc(N5CCCC5)nc4)n3)ccc2=O)c1 [Example 238, 1-{[3-(2-methoxyethoxy)phenyl]methyl}-5-{5-[2-(pyrrolidin-1-yl)pyrimidin-5-yl]-1,2,4-oxadiazol-3-yl}-1,2-dihydropyridin-2-one] | < 0.1 µM
11 | COC(=O)C(C)(C)c1cccc(Cn2cc(-c3nc(-c4ccc(OC(F)(F)F)cc4)no3)ccc2=O)c1 [Example 162, methyl 2-methyl-2-{3-[(2-oxo-5-{3-[4-(trifluoromethoxy)phenyl]-1,2,4-oxadiazol-5-yl}-1,2-dihydropyridin-1-yl)methyl]phenyl}propanoate] | < 0.1 µM
12 | COCCOc1cccc(Cn2cc(-c3noc(-c4ccc(S(=O)(=O)N(C)C)cc4)n3)ccc2=O)c1 [Example 216, 4-[3-(1-{[3-(2-methoxyethoxy)phenyl]methyl}-6-oxo-1,6-dihydropyridin-3-yl)-1,2,4-oxadiazol-5-yl]-N,N-dimethylbenzene-1-sulfonamide] | 0.1 to 1 µM
13 | CNc1ncc(-c2nc(-c3ccc(=O)n(Cc4cccc(OCCOC)c4)c3)no2)cn1 [Example 245, 1-{[3-(2-methoxyethoxy)phenyl]methyl}-5-{5-[2-(methylamino)pyrimidin-5-yl]-1,2,4-oxadiazol-3-yl}-1,2-dihydropyridin-2-one] | 0.1 to 1 µM
14 | CC(C)(O)C(O)c1cccc(Cn2cc(-c3nc(-c4ccc(OC(F)(F)F)cc4)no3)ccc2=O)c1 (centres unmarked) [Example 57, 1-(3-(1,2-Dihydroxy-2-methylpropyl)benzyl)-5-(3-(4-(trifluoromethoxy)phenyl)-1,2,4-oxadiazol-5-yl)pyridin-2(1H)-one] | < 0.1 µM
15 | CNC(=O)c1cc(Cn2nc(-c3nc(-c4ccc(OC(F)(F)F)cc4)no3)ccc2=O)ccc1F [Example 140, 2-fluoro-N-methyl-5-[(6-oxo-3-{3-[4-(trifluoromethoxy)phenyl]-1,2,4-oxadiazol-5-yl}-1,6-dihydropyridazin-1-yl)methyl]benzamide] | < 0.1 µM
16 | CC(C)=Cc1cccc(Cn2cc(-c3nc(-c4ccc(OC(F)(F)F)cc4)no3)ccc2=O)c1 [Example 56, 1-(3-(2-methylprop-1-enyl)benzyl)-5-(3-(4-(trifluoromethoxy)phenyl)-1,2,4-oxadiazol-5-yl)pyridin-2(1H)-one] | < 0.1 µM
17 | COCCOc1cccc(Cn2cc(-c3noc(-c4cnc(NC(C)C)nc4)n3)ccc2=O)c1 [Example 248, 1-{[3-(2-methoxyethoxy)phenyl]methyl}-5-(5-{2-[(propan-2-yl)amino]pyrimidin-5-yl}-1,2,4-oxadiazol-3-yl)-1,2-dihydropyridin-2-one] | < 0.1 µM
18 | CS(=O)(=O)C1CCN(c2cccc(Cn3cc(-c4noc(-c5ccc(N6CCOCC6)cc5)n4)ccc3=O)c2)CC1 [Example 77, 1-(3-(4-(Methylsulfonyl)piperidin-1-yl)benzyl)-5-(5-(4-morpholinophenyl)-1,2,4-oxadiazol-3-yl)pyridin-2(1H)-one] | < 0.1 µM
19 | COCCOc1cccc(Cn2cc(-c3noc(-c4ccc(CC(C)C)cc4)n3)ccc2=O)c1 [Example 236, 1-{[3-(2-methoxyethoxy)phenyl]methyl}-5-{5-[4-(2-methylpropyl)phenyl]-1,2,4-oxadiazol-3-yl}-1,2-dihydropyridin-2-one] | < 0.1 µM
20 | COC(=O)/C=C/c1cccc(Cn2cc(-c3nc(-c4ccc(OC(F)(F)F)cc4)no3)ccc2=O)c1 [Example 172, methyl (2E)-3-{3-[(2-oxo-5-{3-[4-(trifluoromethoxy)phenyl]-1,2,4-oxadiazol-5-yl}-1,2-dihydropyridin-1-yl)methyl]phenyl}prop-2-enoate] | < 0.1 µM
21 | COCCOc1cccc(Cn2cc(-c3noc(-c4cnc(OC)nc4)n3)ccc2=O)c1 [Example 231, 1-{[3-(2-methoxyethoxy)phenyl]methyl}-5-[5-(2-methoxypyrimidin-5-yl)-1,2,4-oxadiazol-3-yl]-1,2-dihydropyridin-2-one] | 0.1 to 1 µM
22 | COCCOc1cccc(Cn2cc(-c3noc(-c4cnc(N5CCCCC5)nc4)n3)ccc2=O)c1 [Example 88, 1-(3-(2-Methoxyethoxy)benzyl)-5-(5-(2-(piperidin-1-yl)pyrimidin-5-yl)-1,2,4-oxadiazol-3-yl)pyridin-2(1H)-one] | < 0.1 µM
23 | COCCOc1cccc(Cn2cc(-c3noc(-c4ccc(C5CCCCC5)cc4)n3)ccc2=O)c1 [Example 84, 5-(5-(4-Cyclohexylphenyl)-1,2,4-oxadiazol-3-yl)-1-(3-(2-methoxyethoxy)benzyl)pyridin-2(1H)-one] | < 0.1 µM
24 | O=C1CN(c2cccc(Cn3cc(-c4nc(-c5ccc(OC(F)(F)F)cc5)no4)ccc3=O)c2)CCN1 [Example 167, 4-{3-[(2-oxo-5-{3-[4-(trifluoromethoxy)phenyl]-1,2,4-oxadiazol-5-yl}-1,2-dihydropyridin-1-yl)methyl]phenyl}piperazin-2-one] | < 0.1 µM
25 | Cc1cccc(Cn2cc(-c3nc(-c4ccc(OC(F)(F)F)cc4)no3)ccc2=O)c1 [Example 152, 1-[(3-methylphenyl)methyl]-5-{3-[4-(trifluoromethoxy)phenyl]-1,2,4-oxadiazo-5-yl}-1,2-dihydropyridin-2-one] | < 0.1 µM
26 | CN1CCN(c2cccc(Cn3cccc(-c4nc(-c5ccc(OC(F)(F)F)cc5)no4)c3=O)c2)CC1 [Example 270, 1-{[3-(4-methylpiperazin-1-yl)phenyl]methyl}-3-{3-[4-(trifluoromethoxy)phenyl]-1,2,4-oxadiazol-5-yl}-1,2-dihydropyridin-2-one] | < 0.1 µM
27 | COCCOc1cccc(Cn2cc(-c3noc(-c4ccc(S(=O)(=O)C(C)C)cc4)n3)ccc2=O)c1 [Example 235, 1-{[3-(2-methoxyethoxy)phenyl]methyl}-5-{5-[4-(propane-2-sulfonyl)phenyl]-1,2,4-oxadiazol-3-yl}-1,2-dihydropyridin-2-one] | 0.1 to 1 µM

Same assay, conditions: 6 hrs hypoxia (1% O2), luminescence

Row | SMILES | IC50
28 | COCCOc1cccc(Cn2cc(-c3noc(-c4ccc(C(F)(F)F)cc4)n3)ccc2=O)c1 [Example 65, 1-(3-(2-Methoxyethoxy)benzyl)-5-(5-(4-(trifluoromethyl)phenyl)-1,2,4-oxadiazol-3-yl)pyridin-2(1H)-one] | 0.1 to 1 µM
29 | O=c1ccc(-c2nc(-c3ccc(OC(F)(F)F)cc3)no2)cn1Cc1cccc(OCC(O)CO)c1 (single isomer, unassigned) [Example 55b, (2S)- or (2R)-1-(3-(2,3-dihydroxypropoxy)benzyl)-5-(3-(4-(trifluoromethoxy)phenyl)-1,2,4-oxadiazol-5-yl)pyridin-2(1H)-one] | < 0.1 µM

— patent publication US20140073634A1 (Institute For Applied Cancer Science/The University of …, priority 2012, published 2014)
